Experimental findings from ChEMBL document CHEMBL1201862, “PubChem BioAssay data set” (2004) are described below.

Several values for one entry are separate records, joined by “and”; a condition that tells them apart may be missing. Equal entries are not always repeated. Activity calls are given as the source filed them. Some results are limits rather than exact numbers.

Experiment [1] is described as follows: Late stage results from the probe development effort to identify inhibitors of the protein methylesterase PME-1: Luminescence-based counterscreen assay to identify cytotoxic compounds. The format is functional.
Experiment [2] deals with Acylamino-acid-releasing enzyme (Homo sapiens, UniProt P13798). The experiment can be described thus: PME-1 inhibitor potency by in-gel ABPP, dose response, selectivity assay for PME-1 inhibitor project, cell lysate, mouse brain cytosol, FP-rhodamine, panel member APEH Assay Panel member description: Inhibition of N-acylaminoacyl-peptide hydrolase (APEH) (anti-target) (AID 2366).

Experiment [3] concerns the target Neurotensin receptor type 1 (Homo sapiens, UniProt P30989). The format is functional.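 Note: Image-based confirmatory dose-response assay measuring agonist activity at NTR1; NTR1-expressing U2OS osteosarcoma cells imaged for beta-arrestin GFP spot formation; agonist potency where compounds increase beta-arrestin recruitment.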
Experiment [4] has as its system Streptococcus sp. 'group A'. The experiment can be described thus: growth inhibition of control SK(-) GAS strain, dose response, counter-screen for streptokinase expression inhibitor project, luminescence, kanamycin, BacTiterGlo, confirmation (AID 1900). Format: functional, organism-based.
Experiment [5] in a line: microbe, parasite or virus in culture. The format is functional. To be noted: Mycobacterium tuberculosis.
Another experiment relates to Streptococcus. The experiment can be described thus: Group A Streptococcus viability loss, dose response, counter-screen for streptokinase expression inhibitor project, luminescence, BacTiterGlo (AID 1915).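 Note: potency for reduction of bacterial viability or growth.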 Format: functional, organism-based.
Experiment [6] concerns the target NACHT, LRR and PYD domains-containing protein 3 (Homo sapiens, UniProt Q96P20). Put plainly: NALP3 inhibitors in yeast, dose response, luminescent (AID 488799). The format is functional.
Experiment [7] can be described thus: Vero E6 cell cytotoxicity, dose response, cytotoxicity control for non-replicating M. tuberculosis project, secondary assay (AID 492998). To be noted: Vero C1008. The format is functional, VeroE6.
The nature of experiment [8]: cells. The format is functional.
The target in experiment [9] is T1, Delta-type opioid receptor (Homo sapiens, UniProt P41143). The experiment can be described thus: HTS Image-Based Screen for Antagonists of the DOR Receptor. [Related pubchem assays (depositor defined):AID1777, AID1785, AID1786, AID2133]. The format is functional.
T1 sequence (P41143 whole entry): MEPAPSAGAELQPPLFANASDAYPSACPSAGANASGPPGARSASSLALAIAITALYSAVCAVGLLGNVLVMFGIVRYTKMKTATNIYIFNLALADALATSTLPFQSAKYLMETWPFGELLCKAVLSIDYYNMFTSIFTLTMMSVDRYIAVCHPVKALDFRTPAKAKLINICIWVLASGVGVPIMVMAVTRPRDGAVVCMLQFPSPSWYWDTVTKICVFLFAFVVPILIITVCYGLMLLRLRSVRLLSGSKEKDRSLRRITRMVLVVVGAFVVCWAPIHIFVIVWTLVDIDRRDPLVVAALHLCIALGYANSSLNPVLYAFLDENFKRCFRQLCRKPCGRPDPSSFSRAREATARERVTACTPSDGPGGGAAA
For experiment [10], the target named is T2, Mu-type opioid receptor (Homo sapiens, UniProt P35372). Put plainly: HTS Image-Based Screen for Agonists of the MOR Receptor. [Related pubchem assays (depositor defined):AID1777, AID1785, AID1786, AID2133]. The format is functional.
T2 sequence (P35372 whole entry): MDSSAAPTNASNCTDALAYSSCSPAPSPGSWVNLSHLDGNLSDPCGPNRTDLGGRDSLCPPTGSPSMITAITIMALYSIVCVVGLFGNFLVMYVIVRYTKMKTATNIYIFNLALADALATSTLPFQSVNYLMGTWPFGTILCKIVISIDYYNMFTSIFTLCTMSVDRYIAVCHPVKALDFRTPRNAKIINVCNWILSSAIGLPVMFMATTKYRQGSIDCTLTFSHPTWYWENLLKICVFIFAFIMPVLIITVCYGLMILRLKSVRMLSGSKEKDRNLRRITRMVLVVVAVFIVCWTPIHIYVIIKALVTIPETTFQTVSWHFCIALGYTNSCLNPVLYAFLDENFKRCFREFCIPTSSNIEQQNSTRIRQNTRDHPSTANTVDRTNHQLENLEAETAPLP
The target of experiment [11] is T1, Delta-type opioid receptor. Put plainly: HTS Image-Based Screen for Agonists of the DOR Receptor. [Related pubchem assays (depositor defined):AID1777, AID1786, AID2133]. Format: functional.
Experiment [12] concerns the target T3, Kappa-type opioid receptor (Homo sapiens, UniProt P41145). Format: functional.
The target in experiment [13] is T3, Kappa-type opioid receptor. Format: functional. The source holds these as a separate data set.
In experiment [14] the target is T3, Kappa-type opioid receptor. The experiment can be described thus: SAR analysis of small molecule agonists of the kappa opioid receptor via a luminescent beta-arrestin assay. [Related pubchem assays (depositor defined):AID1777, AID1786, AID1966, AID2133, AID2136, AID2348, AID2352, AID2357, AID2359, AID2370, AID2420, AID2478, AID2491, AID2492, AID2493, AID2497, AID2498, AID2500, AID449737, AID488822, AID488842]. Format: functional.

Experiment [15] addresses T2, Mu-type opioid receptor. Put plainly: MOR agonists by imaging, SAR follow-up, image-based (AID 2352). The format is functional.
The target of experiment [16] is T1, Delta-type opioid receptor. Put plainly: DOR agonists, SAR follow-up, image-based (AID 2370). Format: functional.
Experiment [17] has as its target T3, Kappa-type opioid receptor. Put plainly: KOR antagonists by imaging, SAR follow-up, image-based (AID 2348). The format is functional.
The target in experiment [18] is T2, Mu-type opioid receptor. The experiment can be described thus: MOR antagonists, SAR follow-up, image-based (AID 2420).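 Note: compounds added before stimulation of receptor with agonist DAMGO.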 Format: functional.
Experiment [19] has as its target T3, Kappa-type opioid receptor. Put plainly: KOR agonist analogs, imaging readout, SAR follow-up, image-based (AID 2359). Format: functional.
Experiment [20] concerns the target T1, Delta-type opioid receptor. The experiment can be described thus: DOR antagonists, SAR follow-up, image-based (AID 2357). The format is functional.
The target of experiment [21] is Voltage-dependent T-type calcium channel subunit alpha-1H (Homo sapiens, UniProt O95180). Format: functional.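 Note: channel activity triggered by adding a high calcium stimulation buffer.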
The target of experiment [22] is T4, Voltage-gated N-type calcium channel alpha-1B subunit/Amyloid beta A4 precursor protein-binding family A member 1 (Homo sapiens, UniProt Q00975+Q02410). The format is protein assay.
T4 sequence (Q00975 whole entry): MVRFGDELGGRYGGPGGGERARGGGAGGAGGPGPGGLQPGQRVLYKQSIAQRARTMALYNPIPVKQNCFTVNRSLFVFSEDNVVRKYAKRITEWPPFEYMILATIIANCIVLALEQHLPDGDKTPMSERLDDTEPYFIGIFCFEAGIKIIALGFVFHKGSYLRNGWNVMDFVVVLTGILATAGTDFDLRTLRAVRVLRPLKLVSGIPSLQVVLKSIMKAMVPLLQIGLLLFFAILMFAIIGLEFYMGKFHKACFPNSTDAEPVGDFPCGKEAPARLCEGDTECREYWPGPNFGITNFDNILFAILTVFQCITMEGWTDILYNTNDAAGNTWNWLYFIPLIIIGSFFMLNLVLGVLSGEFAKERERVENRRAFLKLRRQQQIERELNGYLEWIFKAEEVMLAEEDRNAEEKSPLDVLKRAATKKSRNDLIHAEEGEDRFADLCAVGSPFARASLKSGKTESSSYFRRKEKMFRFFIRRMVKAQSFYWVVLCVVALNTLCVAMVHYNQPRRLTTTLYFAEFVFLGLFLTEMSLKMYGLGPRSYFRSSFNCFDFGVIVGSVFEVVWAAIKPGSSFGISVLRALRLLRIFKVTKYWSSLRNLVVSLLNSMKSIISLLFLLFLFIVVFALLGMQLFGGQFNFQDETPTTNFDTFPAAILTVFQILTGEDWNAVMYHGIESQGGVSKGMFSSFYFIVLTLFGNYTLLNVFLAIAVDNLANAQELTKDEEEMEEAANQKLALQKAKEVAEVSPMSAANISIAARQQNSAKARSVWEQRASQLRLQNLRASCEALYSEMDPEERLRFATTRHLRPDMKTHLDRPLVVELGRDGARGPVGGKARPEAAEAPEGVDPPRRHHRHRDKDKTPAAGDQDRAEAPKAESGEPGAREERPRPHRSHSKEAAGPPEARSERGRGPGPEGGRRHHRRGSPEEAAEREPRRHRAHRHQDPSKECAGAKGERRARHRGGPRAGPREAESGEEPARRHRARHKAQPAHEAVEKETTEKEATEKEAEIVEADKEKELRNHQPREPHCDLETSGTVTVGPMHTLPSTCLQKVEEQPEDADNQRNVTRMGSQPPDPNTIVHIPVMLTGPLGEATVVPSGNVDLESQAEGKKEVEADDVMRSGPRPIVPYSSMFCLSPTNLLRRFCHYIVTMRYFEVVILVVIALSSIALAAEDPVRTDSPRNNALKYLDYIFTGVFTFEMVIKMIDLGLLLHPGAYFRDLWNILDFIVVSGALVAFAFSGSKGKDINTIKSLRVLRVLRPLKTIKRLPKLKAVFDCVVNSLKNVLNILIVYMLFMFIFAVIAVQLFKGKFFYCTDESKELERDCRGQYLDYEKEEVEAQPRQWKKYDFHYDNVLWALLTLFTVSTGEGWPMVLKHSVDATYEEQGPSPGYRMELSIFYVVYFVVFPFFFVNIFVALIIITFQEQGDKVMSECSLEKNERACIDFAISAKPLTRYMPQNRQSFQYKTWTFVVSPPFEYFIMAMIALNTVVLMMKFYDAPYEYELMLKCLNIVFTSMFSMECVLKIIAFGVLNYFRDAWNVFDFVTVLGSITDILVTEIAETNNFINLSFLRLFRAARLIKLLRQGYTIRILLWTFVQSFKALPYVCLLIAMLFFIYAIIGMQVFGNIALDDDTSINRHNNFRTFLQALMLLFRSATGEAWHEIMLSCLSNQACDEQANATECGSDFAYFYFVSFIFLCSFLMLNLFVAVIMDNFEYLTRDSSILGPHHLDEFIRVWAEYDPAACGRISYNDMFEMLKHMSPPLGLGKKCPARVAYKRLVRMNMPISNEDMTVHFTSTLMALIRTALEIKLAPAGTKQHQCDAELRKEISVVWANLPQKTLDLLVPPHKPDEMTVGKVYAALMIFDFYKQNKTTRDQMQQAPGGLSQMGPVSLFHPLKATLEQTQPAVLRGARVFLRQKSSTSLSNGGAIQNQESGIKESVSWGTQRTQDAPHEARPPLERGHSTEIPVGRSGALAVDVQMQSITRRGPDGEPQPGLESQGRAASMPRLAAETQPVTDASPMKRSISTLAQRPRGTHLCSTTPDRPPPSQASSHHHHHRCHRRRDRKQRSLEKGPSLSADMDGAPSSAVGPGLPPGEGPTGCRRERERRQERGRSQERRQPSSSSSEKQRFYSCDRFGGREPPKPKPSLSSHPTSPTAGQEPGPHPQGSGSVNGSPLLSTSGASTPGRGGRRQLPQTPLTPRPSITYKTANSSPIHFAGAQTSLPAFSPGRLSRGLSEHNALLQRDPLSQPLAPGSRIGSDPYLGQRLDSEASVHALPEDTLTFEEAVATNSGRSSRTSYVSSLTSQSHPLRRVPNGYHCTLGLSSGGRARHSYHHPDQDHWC
T4 sequence (Q02410 whole entry): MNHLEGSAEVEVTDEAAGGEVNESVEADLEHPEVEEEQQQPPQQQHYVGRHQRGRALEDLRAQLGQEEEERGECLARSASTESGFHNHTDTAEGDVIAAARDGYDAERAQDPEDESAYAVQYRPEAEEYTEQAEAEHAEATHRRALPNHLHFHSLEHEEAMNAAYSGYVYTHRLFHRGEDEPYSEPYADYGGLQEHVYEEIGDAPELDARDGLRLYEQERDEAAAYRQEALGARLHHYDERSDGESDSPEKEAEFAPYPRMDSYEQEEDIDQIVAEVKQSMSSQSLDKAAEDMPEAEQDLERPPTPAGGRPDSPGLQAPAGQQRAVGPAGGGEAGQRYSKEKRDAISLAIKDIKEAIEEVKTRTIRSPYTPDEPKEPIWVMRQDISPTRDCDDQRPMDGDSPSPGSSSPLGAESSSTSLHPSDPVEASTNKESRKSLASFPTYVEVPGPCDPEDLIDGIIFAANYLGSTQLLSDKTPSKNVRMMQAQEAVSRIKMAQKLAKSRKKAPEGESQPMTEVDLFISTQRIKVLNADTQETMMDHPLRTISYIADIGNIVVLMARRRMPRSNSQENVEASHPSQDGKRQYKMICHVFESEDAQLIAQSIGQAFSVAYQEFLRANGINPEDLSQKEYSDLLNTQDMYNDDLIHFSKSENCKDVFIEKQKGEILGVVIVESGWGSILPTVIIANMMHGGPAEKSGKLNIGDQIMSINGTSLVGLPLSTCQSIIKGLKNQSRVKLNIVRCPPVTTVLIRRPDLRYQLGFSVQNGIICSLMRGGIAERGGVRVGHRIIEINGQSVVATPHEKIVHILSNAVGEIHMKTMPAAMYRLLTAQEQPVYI
In experiment [23] the target is T4, Voltage-gated N-type calcium channel alpha-1B subunit/Amyloid beta A4 precursor protein-binding family A member 1. Format: protein assay. The source holds these as a separate data set.
Another experiment has as its target Phosphomannomutase 2 (Homo sapiens, UniProt O15305). Put plainly: Counter screen SAR assay for PMM2 inhibitors via a fluorescence intensity assay. [Related pubchem assays (depositor defined):AID1545, AID1574]. On the technique in general: A counterscreen serves to expose hits that act by an unwanted route or on another target.
Experiment [24] concerns the target C-C chemokine receptor type 6 (Homo sapiens, UniProt P51684). Put plainly: CCR6 receptor antagonists, dose response, cell-based, luminescent beta-arrestin readout (AID 504728). Format: functional.
Another experiment concerns the target Beta-galactosidase (Escherichia coli, UniProt Q8VNN2). Put plainly: beta-galactosidase enzyme inhibitors and activators, dose response, artefact control for CCR6 antagonist project, biochemical, E. coli enzyme, set 3 (AID 504712). The format is functional.
In another experiment the target is T5, Galanin receptor type 3 (Homo sapiens, UniProt O60755).
T5 sequence (O60755 whole entry): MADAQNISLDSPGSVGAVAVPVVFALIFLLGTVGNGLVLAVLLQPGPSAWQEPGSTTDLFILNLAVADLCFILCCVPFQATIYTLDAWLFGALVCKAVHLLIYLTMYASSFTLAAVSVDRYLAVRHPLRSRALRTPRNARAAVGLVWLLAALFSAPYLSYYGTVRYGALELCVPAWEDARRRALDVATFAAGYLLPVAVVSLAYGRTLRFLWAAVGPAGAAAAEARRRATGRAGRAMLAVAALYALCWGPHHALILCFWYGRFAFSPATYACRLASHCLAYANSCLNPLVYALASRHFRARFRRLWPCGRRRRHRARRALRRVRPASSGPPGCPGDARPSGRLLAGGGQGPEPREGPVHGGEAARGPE
The experiment can be described thus: Fluorescence-based cell-based primary high throughput dose response assay to identify antagonists of the Galanin Receptor 3 (GalR3). Format: functional.

Experiment [25] in a line: cells. The format is functional, cell-based. The conditions noted are these: HEK-CNG.
A short description of experiment [26]: CEM21 lymphoblast cell cytotoxicity, dose response, cytotoxicity control for viral fusion inhibitor project, CellTiter-Glo luminescence, cherry-picked (AID 652042).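 Note: potency for signal decrease meaning cytotoxicity.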 The format is functional, cell-based.
Experiment [27] is described as follows: ZM109 Env clade C HIV-1 fusion inhibitors, dose response, HeLa effector, CEM target cells, luciferase, cherry-pick (AID 652058). Format: functional, cell-based.
A short description of experiment [28]: inhibitors of clade B AD8 Env fusion, dose response, cell-based, cherry-pick (AID 652062).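 Note: luciferase signal from cell-cell fusion driven by HIV-1 clade B AD8 Env; potency is for inhibitors of fusion seen as a drop in luminescence.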 The format is functional.
Experiment [29] is described as follows: inhibitors of intracellular T. cruzi replication, confirmation, NIH3T3 host cells, beta-gal luminescence (AID 2044).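 Note: intracellular parasites grown in NIH/3T3 mouse fibroblasts as host cells; luminescent beta-galactosidase reporter signal from transgenic T. cruzi replicating inside host cells; inhibitors lower the luminescence signal.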 Format: functional, cell-based.
The nature of experiment [30]: growth suppression of PTEN-null colon cells, dose response, cell-based, HCT116 PTEN knockout (AID 1047).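 Note: HCT116 colon tumor cells with PTEN knocked out; cells exposed to compound for 60 hours before readout; potency for loss of cell viability measured by luminescence.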 The format is functional.
Experiment [31] is described as follows: cytotoxicity toward NIH3T3 fibroblasts, dose response, counter-screen, cell-based, ATP luminescence, mouse fibroblasts (AID 2010).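 Note: cells exposed to compound for about 90 hours before reading.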 Format: functional.
Experiment [32] in a line: growth suppression of beta-catenin-knockout colon cells, dose response, cell-based, HCT116, human colon tumor (AID 1045).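 Note: HCT116 colon tumor cells with beta catenin knocked out; cells exposed to compound for 60 hours.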 The format is functional.
Experiment [33] can be described thus: cytotoxicity in NIH/3T3 mouse fibroblasts, dose response, cytotoxicity control, cell-based, mouse embryonic fibroblasts, dry powder, set 2 (AID 493247). The conditions noted are these: Fibroblast. The format is functional.
In the next experiment the test system is Trypanosoma cruzi. Put plainly: growth inhibition of intracellular Trypanosoma cruzi, dose response, cell-based, plate reader, dry powder, set 3 (AID 493197). Format: functional.
In experiment [34] the target is T6, Microphthalmia-associated transcription factor (Homo sapiens, UniProt O75030).
T6 sequence (O75030 whole entry): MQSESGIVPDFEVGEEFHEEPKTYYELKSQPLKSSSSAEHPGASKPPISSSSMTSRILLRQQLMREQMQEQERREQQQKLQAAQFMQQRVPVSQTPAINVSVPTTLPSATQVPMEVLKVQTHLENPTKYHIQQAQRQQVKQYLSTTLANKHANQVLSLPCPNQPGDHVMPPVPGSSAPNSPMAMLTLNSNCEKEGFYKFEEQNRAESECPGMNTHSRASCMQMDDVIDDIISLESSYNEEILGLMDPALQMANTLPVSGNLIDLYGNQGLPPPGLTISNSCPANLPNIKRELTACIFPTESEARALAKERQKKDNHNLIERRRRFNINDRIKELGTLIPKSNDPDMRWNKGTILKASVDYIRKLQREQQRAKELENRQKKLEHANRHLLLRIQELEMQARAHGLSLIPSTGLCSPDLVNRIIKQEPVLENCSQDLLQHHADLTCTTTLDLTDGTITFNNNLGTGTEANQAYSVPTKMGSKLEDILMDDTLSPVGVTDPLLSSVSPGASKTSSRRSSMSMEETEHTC
The experiment can be described thus: TRPM1 promoter luciferase signal decrease, dose response, MITF inhibitor project, cell-based, SK-MEL-5, cherry-picked, set 3 (AID 493073).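 Note: SK-MEL-5 melanoma cells with luciferase driven by the MITF target TRPM1 promoter.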 The format is functional.

Experiment [35] deals with G-protein coupled receptor 55 (Homo sapiens, UniProt Q9Y2T6). Put plainly: GPR55 antagonists blocking LPI-driven arrestin recruitment, primary screen, imaging, U2OS, beta-arrestin-GFP, LPI agonist (AID 2013).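 Note: antagonist potency measured as reduced agonist-driven arrestin aggregation.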 The format is functional. On the technique in general: Arrestin recruitment assays detect the binding of arrestin to an activated receptor.
Sequence of G-protein coupled receptor 55 (Q9Y2T6 whole entry): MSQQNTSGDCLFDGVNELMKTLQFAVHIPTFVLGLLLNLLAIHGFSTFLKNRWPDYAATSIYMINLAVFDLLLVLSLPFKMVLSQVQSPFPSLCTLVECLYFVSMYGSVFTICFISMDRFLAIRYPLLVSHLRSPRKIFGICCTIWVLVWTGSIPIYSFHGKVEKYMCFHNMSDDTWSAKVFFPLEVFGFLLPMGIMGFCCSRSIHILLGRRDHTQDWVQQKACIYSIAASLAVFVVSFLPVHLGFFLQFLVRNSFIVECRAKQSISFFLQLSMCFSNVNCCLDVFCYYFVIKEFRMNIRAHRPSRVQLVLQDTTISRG

T3 sequence (P41145 whole entry): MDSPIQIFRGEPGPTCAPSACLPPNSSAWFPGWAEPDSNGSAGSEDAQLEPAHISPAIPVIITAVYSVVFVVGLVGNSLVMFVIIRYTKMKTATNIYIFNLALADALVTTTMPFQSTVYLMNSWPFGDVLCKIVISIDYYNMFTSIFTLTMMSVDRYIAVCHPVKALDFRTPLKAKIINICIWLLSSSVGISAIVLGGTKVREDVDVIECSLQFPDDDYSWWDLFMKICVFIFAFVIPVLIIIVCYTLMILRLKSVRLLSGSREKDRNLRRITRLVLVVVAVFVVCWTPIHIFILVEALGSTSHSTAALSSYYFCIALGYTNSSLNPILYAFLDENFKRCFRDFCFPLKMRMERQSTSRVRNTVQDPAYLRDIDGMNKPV
Sequence of Neurotensin receptor type 1 (P30989 whole entry): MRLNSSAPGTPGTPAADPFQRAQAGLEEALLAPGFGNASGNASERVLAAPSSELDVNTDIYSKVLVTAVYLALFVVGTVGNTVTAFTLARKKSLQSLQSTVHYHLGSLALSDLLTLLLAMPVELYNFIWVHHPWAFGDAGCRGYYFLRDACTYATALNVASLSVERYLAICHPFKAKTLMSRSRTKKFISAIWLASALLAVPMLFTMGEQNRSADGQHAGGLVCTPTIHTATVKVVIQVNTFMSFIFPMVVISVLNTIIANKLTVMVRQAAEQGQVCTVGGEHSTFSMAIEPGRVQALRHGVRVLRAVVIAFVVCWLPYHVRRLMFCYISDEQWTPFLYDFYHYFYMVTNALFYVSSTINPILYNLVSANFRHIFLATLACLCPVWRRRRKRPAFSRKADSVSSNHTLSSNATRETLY

As usually defined, the IC50 is the point on the concentration scale where inhibition reaches its midpoint. In the case of `N#C/C(=C\c1cccn1S(=O)(=O)c1cccc(C#N)c1)S(=O)(=O)c1ccc(F)cc1`, the CC50 in experiment [1] is 100 µM (active). The IC50 in [2] is > 50 µM (inactive).
One may read the EC50 as the concentration giving half of the maximal effect. As for `CC(C)Cn1c(N)c(C(=O)CSc2cc(Cl)ccc2Cl)c(=O)n(C)c1=O`, the EC50 in experiment [3] is 16.5 µM (active).
As for `O=c1cc(-c2ccccc2Cl)oc2ccc([N+](=O)[O-])c(O)c12`, the EC50 was 4.58 µM (active) in experiment [4] and 8.09 µM (active) with Streptococcus. Also, the CC50 in experiment [5] is 26.2 µM (active); in [7], > 20 µM (active). Besides, the half-inhibitory concentration (IC50) in experiment [6] is 9.17 µM (active); in the experiment “cells [8]”, 12.1 µM (active).
Turning to `O=C(c1ccccn1)N(Cc1ccco1)C1(C(=O)NC2CCCCC2)CCCCC1`, the IC50 (in experiment [9]; in [17]; on Mu-type opioid receptor [18]; in experiment [20]) was > 32 µM (inactive) in each case. In addition, the EC50 at Mu-type opioid receptor [10] was > 32 µM (inactive); in experiment [11], > 32 µM (inactive); in [12], below 0.5 µM; in experiment [13] it was 0.22 µM; in experiment [14] it was 0.821 µM (active); at Mu-type opioid receptor [15] it was > 32 µM (inactive). The figures for the EC50 in experiment [16] and in [19] were > 32 µM (inactive) and 0.125 µM (active), respectively.
`CCN(CC)S(=O)(=O)c1cccc(C(=O)N[C@H](C(=O)OCC(=O)Nc2ccccc2)C(C)C)c1`: the EC50 in [21] is 0.558 µM (active).
Consider `O=C(O)Cc1sc(Nc2ccc(F)cc2)nc1-c1cccs1`, for which the results for the IC50 in [22] and in experiment [23] were 9.21 µM (active) and > 50 µM (inactive), respectively.
Consider `O=c1c2ccccc2sn1-c1cccc(I)c1`, for which the IC50 on Phosphomannomutase 2 is > 100 µM (inactive).
The term AC50 denotes the concentration at which the activity in the assay is half-maximal. Turning to `COCC(C)n1c(-c2ccc3c(c2)NC(=O)CO3)cs/c1=N\c1ccc(OC(F)F)cc1` (stereo unspecified), the IC50 in [24] was > 66.6 µM (inactive); at Beta-galactosidase it was > 66.6 µM (inactive); at Galanin receptor type 3, 4.24 µM (active) and 3.49 µM (active). The EC50 in the experiment “cells [25]” is > 29.9 µM (inactive). The values for the concentration at half-maximal activity (AC50) in experiment [26], in experiment [27] and in experiment [28] were 42.7 µM (active), 4.28 µM (active) and 3.15 µM (active), respectively.
In the case of `O=C(COc1ccccc1)N/N=C/c1ccc([N+](=O)[O-])o1`, the EC50 in experiment [29] was 0.122 µM (active); in experiment [30], 7.39 µM (active); in experiment [31] it was > 60 µM (not active); in [32], 6.95 µM (active). Moreover, the AC50 in experiment [33] is 21.2 µM (active); in the experiment on Trypanosoma cruzi, 0.317 µM (active); in experiment [34], 21.5 µM (active).
For `CC(C)(C)c1nn(-c2ccccc2)c2[nH]c(=O)c(CNCc3ccc4c(c3)OCO4)cc12`, the IC50 in experiment [35] was 2.67 µM (active). Besides, the CC50 in experiment [5] was 27.2 µM (active).
